Measured values taken from patent US11708357B2, “Crystal form of pyrrolidinyl urea derivative and application thereof” (ZHANGZHOU PIEN TZE HUANG PHARMACEUTICAL CO., LTD., priority 2020, dated 2023).

How the values were obtained:
[1] = In vivo pharmacokinetic study in rats after single administration; details: male, Sprague Dawley, rat, plasma, 2 mg/kg, 2 mpk intravenous injection
Method: Male SD rats were used as test animals, and the concentration of the compound in blood was determined after single administration to evaluate the pharmacokinetic behavior.
Sprague Dawley rats (male, 200-300 g, 7-9 weeks, Shanghai Charles River Laboratory Animal Co., Ltd.)
The pharmacokinetic characteristics of the test compound in rodents after intravenous injection and oral administration were tested by standard protocols, in the experiment, the test compound was prepared into a clear solution or homogeneous suspension, and administered to the rats by single intravenous injection and oral administration. In the intravenous injection group, the menstruum was a certain proportion of ethanol and physiological saline solution or a certain proportion of dimethyl sulfoxide in HP-β cyclodextrin solution (the pH was adjusted to 3-4), the mixture was vortexed and stirred to prepare 1 mg/mL clear solution, then filtered with microporous membrane for later use; in the oral administration group, the menstruum was a certain proportion of sodium carboxymethyl cellulose solution or a certain proportion of dimethyl sulfoxide in HP-β cyclodextrin solution (the pH was adjusted to about 4), after the test compound was mixed with the solvent, the mixture was vortexed and stirred to prepare 30 mg/mL homogeneous suspension for later use. After 2 mg/kg intravenous administration or 300 mg/kg oral administration to rats, a certain amount of whole blood samples were collected, centrifuged at 3000 g for 15 minutes, the supernatant was separated to obtain the plasma samples; then an acetonitrile solution containing internal standard with a volume 3 times that of the plasma sample was added to precipitate proteins, and then centrifuged; the supernatant was separated, and water with a volume twice that of the supernatant was added to the supernatant, which was then centrifuged again; the supernatant was collected for analysis; LC-MS/MS analysis method was used to quantitatively analyze the blood drug concentration, and Phoenix WinNonlin software (Pharsight, USA) was used to calculate the pharmacokinetic parameters, such as peak concentration, time to peak concentration, clearance rate, half-life, area under the concentration-time curve, bioavailability, etc.
Among them, C0 is the initial concentration, T1/2 is the elimination half-life, Vdss is the steady-state apparent volume of distribution, Cl is the total clearance rate, AUC0-inf is the area under the plasma drug concentration-time curve from time 0 to infinity, Cmax is the peak concentration, Tmax is the time to peak concentration.

CYP1A2 = target: T1, CYP1A2 (Homo sapiens, UniProt P05177); experiment: Cytochrome P450 isozyme inhibitory activity test, CYP1A2; assay type: in vitro ADME; details: liver microsomes; human liver microsome
T1 construct: from tissue; host or cells: human liver microsomes
T1 sequence (P05177 1-516): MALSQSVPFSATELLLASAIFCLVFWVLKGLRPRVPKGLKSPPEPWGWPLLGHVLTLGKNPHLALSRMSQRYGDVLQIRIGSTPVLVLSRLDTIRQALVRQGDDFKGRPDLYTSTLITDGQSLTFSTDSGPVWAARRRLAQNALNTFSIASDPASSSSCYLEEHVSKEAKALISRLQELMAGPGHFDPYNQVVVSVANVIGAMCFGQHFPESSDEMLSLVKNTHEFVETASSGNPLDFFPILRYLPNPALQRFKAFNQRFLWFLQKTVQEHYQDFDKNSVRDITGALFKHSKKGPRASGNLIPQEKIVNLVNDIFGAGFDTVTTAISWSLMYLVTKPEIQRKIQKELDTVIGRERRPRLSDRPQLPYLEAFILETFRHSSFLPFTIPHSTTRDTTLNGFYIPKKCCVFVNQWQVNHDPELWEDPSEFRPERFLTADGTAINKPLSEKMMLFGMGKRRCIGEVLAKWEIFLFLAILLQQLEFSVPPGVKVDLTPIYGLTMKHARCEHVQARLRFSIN
Method: The inhibitory activities of the test compound on different subtypes of human cytochrome P450 isozymes were determined. The test compound, standard inhibitor (100× final concentration), and a mixed substrate working solution were prepared; the microsome frozen in −80° C. refrigerator was thawed. […]

AUC(0-inf) [1]: 2.61 µM·h
C0 [1]: 5.38 µM
clearance [1]: 22.4 mL/min/kg
half-life [1]: 33 min
Vd ([1]; read-out: Vdss): 0.81 L/kg
IC50 at 10 min (CYP1A2): > 50 µM
Structure (SMILES): COCCN1C[C@@H](n2ccc(F)c2)[C@H](NC(=O)Nc2c(C)c(-c3cnc(C4(F)COC4)nc3)nn2-c2ccccc2)C1 [Compound of formula (I)]
